{"source": "patent US8198020B2", "about": "“Compositions and methods for enhancing phagocytosis or phagocyte activity” (Potentia Pharmaceuticals, Inc., priority 2003, dated 2012)", "origin": "cited, not measured here", "test_system": "metastatic colorectal cancer", "conditions": "patients with metastatic colorectal cancer; prolonged from 15.6", "data": [{"substance": "Avastin: recombinant monoclonal antibody that binds to VEGF", "values": [{"measurement": "median survival", "value": 18.3, "unit": "months"}]}]}
